From US7884117B2, “Carbonylamino pyrrolopyrazoles, potent kinase inhibitors” (Pfizer Inc., priority 2005, dated 2011)

Columns and labels:
[1] = molecular target: T1, PAK4 Kinase domain (PAK4 KD) (Homo sapiens, UniProt O96013); experiment: PAK4 kinase domain enzymatic assay (PK/LDH-coupled, Ki); format: biochemical; details: PAK4 Kinase Domain
T1 construct: Cloning, expression, and purification of recombinant PAK4 Kinase domain (PAK4 KD); His tag (pET28a(+)/pET24a(+), Ni-NTA purification) (N, cleaved yes); GST (pGST4.5, glutathione column) (N, cleaved yes); made in house; host or cells: E. coli BL21(DE3)

[2] = molecular target: T2, PAK4 kinase activity in whole cells (TR-293-KDG, modified HEK 293) (Homo sapiens, UniProt O96013); experiment: PAK4 cellular assay: sandwich ELISA of PAK4-dependent phosphorylation of GEF-H1b in TR-293-KDG cells; format: cell-based; details: 3-hour exposure
T2 construct: engineered to overexpress both GEF-H1b and the kinase domain (KD) of PAK4; expressed in transfected cells; host or cells: TR-293-KDG (modified HEK 293, Trex system, Invitrogen)
T2 sequence (O96013 321-572 limits assumed): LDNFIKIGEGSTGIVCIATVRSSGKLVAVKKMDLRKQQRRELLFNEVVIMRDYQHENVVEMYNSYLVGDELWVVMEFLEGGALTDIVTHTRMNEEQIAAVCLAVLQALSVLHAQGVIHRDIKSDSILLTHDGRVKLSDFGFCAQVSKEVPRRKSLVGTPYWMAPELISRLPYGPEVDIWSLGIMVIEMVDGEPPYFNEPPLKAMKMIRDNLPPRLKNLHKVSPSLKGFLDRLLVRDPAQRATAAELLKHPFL
Protocol: A sandwich ELISA method was used to measure the PAK4 kinase activity in whole cells. The level of PAK4-dependent phosphorylation of GEF-H1b can be determined by monitoring the binding of a phosphospecific antibody to GEF-H1b. […] The KD of PAK4 is inducible in this cell line by tetracycline (Trex system, Invitrogen). […] To establish a phosphorylation event on GEF-HL, cells are induced with doxycycline to express the PAK4 KD. […] Candidate substance effect is measured as the ability to block this phosphorylation event.
ELISA plate was prepared by pre-coating the plates with a capture antibody (α-HA-tag mouse monoclonal antibody), blocked with BSA, and washed in 0.1% tween 20 in tris-buffered saline (TBST). […] Cells were then lysed with a modified RIPA buffer supplemented with protease inhibitors. […] Between all subsequent steps plates were washed 4 times with TBST. Detection antibody (recognizing the phospho-specific eptitope on GEF-H1b) was added for 1 hour, followed by addition of an enzyme linked goat α-rabbit secondary antibody for 45 minutes. […] EC50 values were calculated by sigmoid curve fitting using a four-parameter analysis.

T1 sequence (O96013 321-572 limits assumed): as above

| SMILES | Ki [1] | EC50 [2] |
| --- | --- | --- |
| CC(C)C[C@@H](CN(C)C)OC(=O)N1Cc2c(NC(=O)c3ccccc3)n[nH]c2C1(C)C [Example 35, (1S)-1-[(dimethylamino)methyl]-3-methylbutyl 3-(benzoylamino)-6,6-dimethyl-4,6-dihydropyrrolo[3,4-c]pyrazole-5(1H)-carboxylate] | 92.3 nM | 216 nM |
| CC(C)N(C)C[C@@H](OC(=O)N1Cc2c(NC(=O)c3ccc(F)cc3)n[nH]c2C1(C)C)c1ccccc1 [Example 40, (1S)-2-[isopropyl(methyl)amino]-1-phenylethyl 3-[(4-fluorobenzoyl)amino]-6,6-dimethyl-4,6-dihydropyrrolo[3,4-c]pyrazole-5(H)-carboxylate] | 64.9 nM | 152 nM |
| CC1(C)c2[nH]nc(NC(=O)c3ccc(F)cc3)c2CN1C(=O)OC(CN1CCCC1)c1ccccc1 (stereo not shown) [Example 43, 1-phenyl-2-pyrrolidin-1-ylethyl 3-[(4-fluorobenzoyl)amino]-6,6-dimethyl-4,6-dihydropyrrolo[3,4-c]pyrazole-5(1H)-carboxylate] | 58.1 nM | 439 nM |
| C[C@@H]([C@@H](OC(=O)N1Cc2c(NC(=O)c3ccc(F)cc3)n[nH]c2C1(C)C)c1ccccc1)N(C)C [Example 45, (1S,2S)-2-(dimethylamino)-1-phenylpropyl 3-[(4-fluorobenzoyl)amino]-6,6-dimethyl-4,6-dihydropyrrolo[3,4-c]pyrazole-5(1H)-carboxylate] | 318 nM | 21.1 nM |
| CN(C)C[C@@H](NC(=O)N1Cc2c(NC(=O)c3ccc(C(F)(F)F)cc3)n[nH]c2C1(C)C)c1ccccc1 [Example 50, N-[(1S)-2-(dimethylamino)-1-phenylethyl]-6,6-dimethyl-3-{[4-(trifluoromethyl)benzoyl]amino}-4,6-dihydropyrrolo[3,4-c]pyrazole-5(1H)-carboxamide] | 33.8 nM | 335 nM |
| COc1ccc(CC(=O)Nc2n[nH]c3c2CN(C(=O)N[C@H](CN(C)C)c2ccccc2)C3(C)C)cc1 [Example 55, N-[(1S)-2-(dimethylamino)-1-phenylethyl]-3-{[(4-methoxyphenyl)acetyl]amino}-6,6-dimethyl-4,6-dihydropyrrolo[3,4-c]pyrazole-5(1H)-carboxamide] | 13.6 nM | 148 nM |
| CN(C)C[C@@H](NC(=O)N1Cc2c(NC(=O)c3cccs3)n[nH]c2C1(C)C)c1ccccc1 [Example 57, N-[(1S)-2-(dimethylamino)-1-phenylethyl]-6,6-dimethyl-3-[(2-thienylcarbonyl)amino]-4,6-dihydropyrrolo[3,4-c]pyrazole-5(1H)-carboxamide] | 11.3 nM | 16 nM |
| CN(C)C[C@@H](OC(=O)N1Cc2c(NC(=O)c3cn(C)cn3)n[nH]c2C1(C)C)c1ccccc1 [Example 69, (1S)-2-(dimethylamino)-1-phenylethyl 6,6-dimethyl-3-{[(1-methyl-1H-imidazol-4-yl)carbonyl]amino}-4,6-dihydropyrrolo[3,4-c]pyrazole-5(1H)-carboxylate] | 149 nM | 226 nM |
| CN(C)C[C@@H](NC(=O)N1Cc2c(n[nH]c2NC(=O)c2nccs2)C1(C)C)c1ccccc1 [Example 71, N-[(1S)-2-(dimethylamino)-1-phenylethyl]-6,6-dimethyl-3-[(1,3-thiazol-2-ylcarbonyl)amino]-4,6-dihydropyrrolo[3,4-c]pyrazole-5(1H)-carboxamide] | 101 nM | 84.1 nM |
| CN(C)C[C@@H](NC(=O)N1Cc2c(NC(=O)c3cscn3)n[nH]c2C1(C)C)c1ccccc1 [Example 72, N-[(1S)-2-(dimethylamino)-1-phenylethyl]-6,6-dimethyl-3-[(1,3-thiazol-4-ylcarbonyl)amino]-4,6-dihydropyrrolo[3,4-c]pyrazole-5(1H)-carboxamide] | 93.8 nM | 362 nM |
| CN(C)C[C@@H](OC(=O)N1Cc2c(NC(=O)c3ccc(F)cc3)n[nH]c2C1(C)C)C1CCCCC1 [Example 75, (1S)-1-cyclohexyl-2-(dimethylamino)ethyl 3-[(4-fluorobenzoyl)amino]-6,6-dimethyl-4,6-dihydropyrrolo[3,4-c]pyrazole-5(1H)-carboxylate] | 73.1 nM | 115 nM |
| COC[C@@H](CN(C)C)OC(=O)N1Cc2c(NC(=O)c3ccc(F)cc3)n[nH]c2C1(C)C [Example 77, (1R)-2-(dimethylamino)-1-(methoxymethyl)ethyl 3-[(4-fluorobenzoyl)amino]-6,6-dimethyl-4,6-dihydropyrrolo[3,4-c]pyrazole-5(1H)-carboxylate] | 345 nM | 167 nM |
| CC(C)C[C@@H](CN(C)C)OC(=O)N1Cc2c(NC(=O)c3ccc(C(F)(F)F)cc3)n[nH]c2C1(C)C [Example 79, (1S)-1-[(dimethylamino)methyl]-3-methylbutyl 6,6-dimethyl-3-{[4-(trifluoromethyl)benzoyl]amino}-4,6-dihydropyrrolo[3,4-c]pyrazole-5(1H)-carboxylate] | 96 nM | 2120 nM |

Continued by falling Ki [1], values first:

| Ki [1] | EC50 [2] | SMILES |
| --- | --- | --- |
| 354 nM | 242 nM | CC(=O)Nc1n[nH]c2c1CN(C(=O)N[C@H](CN(C)C)c1ccccc1)C2(C)C [Example 52, 3-(acetylamino)-N-[(1S)-2-(dimethylamino)-1-phenylethyl]-6,6-dimethyl-4,6-dihydropyrrolo[3,4-c]pyrazole-5(1H)-carboxamide] |
| 354 nM | 200 nM | C[C@@H](CN(C)C)OC(=O)N1Cc2c(NC(=O)c3ccccc3)n[nH]c2C1(C)C [Example 73, (1S)-2-(dimethylamino)-1-methylethyl 3-(benzoylamino)-6,6-dimethyl-4,6-dihydropyrrolo [3,4-c]pyrazole-5(1H)-carboxylate] |
| 210 nM | 28 nM | CN(C)C[C@@H](NC(=O)N1Cc2c(NC(=O)C3CCC3)n[nH]c2C1(C)C)c1ccccc1 [Example 53, 3-[(cyclobutylcarbonyl)amino]-N-[(1S)-2-(dimethylamino)-1-phenylethyl]-6,6-dimethyl-4,6-dihydropyrrolo[3,4-c]pyrazole-5(1H)-carboxamide] |
| 118 nM | 20.3 nM | CN(C)C[C@@H](NC(=O)N1Cc2c(NC(=O)c3ccccn3)n[nH]c2C1(C)C)c1ccccc1 [Example 51, N-[(1S)-2-(dimethylamino)-1-phenylethyl]-6,6-dimethyl-3-[(pyridin-2-ylcarbonyl)amino]-4,6-dihydropyrrolo[3,4-c]pyrazole-5(1H)-carboxamide] |
| 103 nM | 315 nM | CC(C)C[C@@H](CN(C)C)OC(=O)N1Cc2c(NC(=O)c3ccc(F)cc3)n[nH]c2C1(C)C [Example 36, (1S)-1-[(dimethylamino)methyl]-3-methylbutyl 3-[(4-fluorobenzoyl)amino]-6,6-dimethyl-4,6-dihydropyrrolo[3,4-c]pyrazole-5(H)-carboxylate] |
| 98.3 nM | 36.4 nM | CN(C)C[C@@H](NC(=O)N1Cc2c(NC(=O)c3ccccc3F)n[nH]c2C1(C)C)c1ccccc1 [Example 48, N-[(1S)-2-(dimethylamino)-1-phenylethyl]-3-[(2-fluorobenzoyl)amino]-6,6-dimethyl-4,6-dihydropyrrolo[3,4-c]pyrazole-5(1H)-carboxamide] |
| 54.2 nM | 34.7 nM | CN(C)C[C@@H](NC(=O)N1Cc2c(NC(=O)c3ccc(F)cc3)n[nH]c2C1(C)C)c1ccccc1 [Example 47, N-[(1S)-2-(dimethylamino)-1-phenylethyl]-3-[(4-fluorobenzoyl)amino]-6,6-dimethyl-4,6-dihydropyrrolo[3,4-c]pyrazole-5(1H)-carboxamide] |
| 48.2 nM | 34.1 nM | CN(C)C[C@@H](OC(=O)N1Cc2c(NC(=O)c3cscn3)n[nH]c2C1(C)C)c1ccccc1 [Example 68, (1S)-2-(dimethylamino)-1-phenylethyl 6,6-dimethyl-3-[(1,3-thiazol-4-ylcarbonyl)amino]-4,6-dihydropyrrolo[3,4-c]pyrazole-5(1H)-carboxylate] |
| 47.5 nM | 15.3 nM | CN(C)CC(OC(=O)N1Cc2c(NC(=O)c3ccc(F)cc3)n[nH]c2C1(C)C)c1ccc(F)cc1 (stereo not shown) [Example 39, 2-(dimethylamino)-1-(4-fluorophenyl)ethyl 3-[(4-fluorobenzoyl)amino]-6,6-dimethyl-4,6-dihydropyrrolo[3,4-c]pyrazole-5(1H)-carboxylate] |
| 43.2 nM | 113 nM | CN(C)CC(OC(=O)N1Cc2c(NC(=O)c3ccc(F)cc3)n[nH]c2C1(C)C)c1ccccc1F (stereo not shown) [Example 38, 2-(dimethylamino)-1-(2-fluorophenyl)ethyl 3-[(4-fluorobenzoyl)amino]-6,6-dimethyl-4,6-dihydropyrrolo[3,4-c]pyrazole-5(1H)-carboxylate] |
| 41 nM | 353 nM | CN(C)C[C@@H](NC(=O)N1Cc2c(NC(=O)Cc3ccc(F)cc3)n[nH]c2C1(C)C)c1ccccc1 [Example 54, N-[(1S)-2-(dimethylamino)-1-phenylethyl]-3-{[(4-fluorophenyl)acetyl]amino}-6,6-dimethyl-4,6-dihydropyrrolo[3,4-c]pyrazole-5(1H)-carboxamide] |
| 33.6 nM | 32.1 nM | CN(C)C[C@@H](NC(=O)N1Cc2c(NC(=O)c3ccccc3)n[nH]c2C1(C)C)c1ccccc1 [Example 46, 3-(benzoylamino)-N-[(1S)-2-(dimethylamino)-1-phenylethyl]-6,6-dimethyl-4,6-dihydro pyrrolo[3,4-c]pyrazole-5(1H)-carboxamide] |
| 6.9 nM | 37.1 nM | CN(C)C[C@@H](NC(=O)N1Cc2c(NC(=O)[C@@H]3C[C@H]3c3ccccc3)n[nH]c2C1(C)C)c1ccccc1 [Example 56, N-[(1S)-2-(dimethylamino)-1-phenylethyl]-6,6-dimethyl-3-({[trans-2-phenylcyclopropyl]carbonyl}amino)-4,6-dihydropyrrolo[3,4-c]pyrazole-5(1H)-carboxamide] |
